Reference: patent US6960597B2, “Aza-bridged-bicyclic amino acid derivatives as α4 integrin antagonists” (Orth-McNeil Pharmaceutical, Inc., priority 2000, dated 2005)
Like-named read-outs stand apart in the source and are kept apart here.

How the values were obtained:
[1] = target: T1, α4β1 integrin receptor (Homo sapiens, UniProt P05556+P13612); experiment: Ramos Cell Adhesion Assay (α4β1 Mediated Adhesion/VCAM-1); type: cell-based
T1 construct: Ramos Cell Adhesion Assay (α4β1 Mediated Adhesion/VCAM-1); endogenous in cells; host or cells: Ramos cells
Method in brief: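 Plates coated overnight at 4° C with recombinant hVCAM-1 (4.0 μg/mL, pH 9.0), then blocked with PBS/1% BSA. Ramos cells labelled with 5 μM Calcein AM adhered 1 h at room temperature with compound; after washing, cells were lysed in SDS and fluorescence read at 485/530 nm.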

[2] = target: T2, human α4β7 (Homo sapiens, UniProt P13612+P26010); experiment: α4β7-K562 Cell Adhesion Assay (α4β7 Mediated Adhesion/VCAM-1); type: cell-based
T2 construct: expressed in transfected cells
T2 sequence (P13612 34-1032): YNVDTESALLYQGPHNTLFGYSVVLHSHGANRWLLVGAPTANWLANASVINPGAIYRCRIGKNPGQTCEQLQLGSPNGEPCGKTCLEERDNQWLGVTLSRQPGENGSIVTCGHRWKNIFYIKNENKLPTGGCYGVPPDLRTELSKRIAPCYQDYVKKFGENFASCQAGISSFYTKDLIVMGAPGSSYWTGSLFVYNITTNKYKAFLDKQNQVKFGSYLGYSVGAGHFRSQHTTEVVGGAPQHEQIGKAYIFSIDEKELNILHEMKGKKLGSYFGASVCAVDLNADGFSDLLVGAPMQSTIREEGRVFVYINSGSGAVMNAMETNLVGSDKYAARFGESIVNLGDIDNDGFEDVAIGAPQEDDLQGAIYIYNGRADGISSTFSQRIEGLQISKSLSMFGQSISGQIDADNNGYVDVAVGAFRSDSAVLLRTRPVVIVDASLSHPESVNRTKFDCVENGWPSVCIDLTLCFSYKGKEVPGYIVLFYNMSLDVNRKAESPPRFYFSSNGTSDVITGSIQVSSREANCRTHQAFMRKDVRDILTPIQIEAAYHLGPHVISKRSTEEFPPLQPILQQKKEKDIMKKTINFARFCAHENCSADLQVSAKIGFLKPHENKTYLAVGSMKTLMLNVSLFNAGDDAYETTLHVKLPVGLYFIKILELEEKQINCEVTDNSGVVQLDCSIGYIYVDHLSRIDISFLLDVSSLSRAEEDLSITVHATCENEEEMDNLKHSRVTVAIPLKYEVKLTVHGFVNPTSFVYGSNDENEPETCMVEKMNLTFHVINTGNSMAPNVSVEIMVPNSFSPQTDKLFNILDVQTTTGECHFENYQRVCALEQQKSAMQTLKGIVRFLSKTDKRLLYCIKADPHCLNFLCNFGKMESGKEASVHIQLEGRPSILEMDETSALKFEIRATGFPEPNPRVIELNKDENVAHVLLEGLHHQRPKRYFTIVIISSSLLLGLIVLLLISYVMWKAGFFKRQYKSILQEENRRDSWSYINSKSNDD
T2 sequence (P26010 20-798): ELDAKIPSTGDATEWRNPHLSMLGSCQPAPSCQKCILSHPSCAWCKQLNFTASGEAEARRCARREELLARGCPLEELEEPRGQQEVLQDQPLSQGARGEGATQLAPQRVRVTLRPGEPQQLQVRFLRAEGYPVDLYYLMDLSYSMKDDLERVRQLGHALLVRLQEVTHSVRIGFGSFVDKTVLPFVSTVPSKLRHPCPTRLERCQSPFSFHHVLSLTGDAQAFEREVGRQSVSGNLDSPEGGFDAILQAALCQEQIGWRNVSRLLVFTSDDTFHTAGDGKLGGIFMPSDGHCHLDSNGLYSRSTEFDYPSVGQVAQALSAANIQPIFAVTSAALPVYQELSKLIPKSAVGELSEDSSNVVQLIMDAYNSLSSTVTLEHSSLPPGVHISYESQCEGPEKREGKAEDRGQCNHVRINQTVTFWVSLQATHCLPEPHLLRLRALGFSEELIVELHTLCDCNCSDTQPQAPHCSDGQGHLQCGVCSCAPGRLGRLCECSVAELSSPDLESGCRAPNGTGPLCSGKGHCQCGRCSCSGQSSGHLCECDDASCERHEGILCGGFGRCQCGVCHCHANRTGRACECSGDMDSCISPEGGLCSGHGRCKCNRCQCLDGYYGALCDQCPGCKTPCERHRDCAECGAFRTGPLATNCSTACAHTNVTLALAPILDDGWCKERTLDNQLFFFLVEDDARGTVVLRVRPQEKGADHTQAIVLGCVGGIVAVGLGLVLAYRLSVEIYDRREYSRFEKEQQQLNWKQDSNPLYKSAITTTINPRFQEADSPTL
Method in brief: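 K562 cells stably expressing human α4β7, labelled with 5 μM Calcein AM, adhered for 1 h at room temperature to plates coated with recombinant hVCAM-1 (4.0 μg/mL) in the presence of compound. After washing, cells were lysed in Tris/SDS. Bound cells were read by fluorescence at 485/530 nm.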

[3] = Table III, read-out: Inhibition of Binding of Ramos Cells to Immobilized VCAM-1 IC50
[4] = Table IV, read-out: Inhibition of Binding of K562 Cells to Immobilized VCAM-1 IC50
[5] = Inhibition of Binding of Ramos Cells to Immobilized VCAM-1 IC50, Table III
[6] = Table I, racemic mixtures and resolved (S,S) and (R,S) diastereomers, read-out: Antagonist IC50 Activity α4β1
[7] = Table I, racemic mixtures and resolved (S,S) and (R,S) diastereomers, read-out: Antagonist IC50 Activity α4β7
[8] = Table III, μM, read-out: Inhibition of Binding of Ramos Cells to Immobilized VCAM-1 IC50
[9] = Table IV, μM, read-out: Inhibition of Binding of K562 Cells to Immobilized VCAM-1 IC50

T1 sequence (P05556 21-798, one chain of several): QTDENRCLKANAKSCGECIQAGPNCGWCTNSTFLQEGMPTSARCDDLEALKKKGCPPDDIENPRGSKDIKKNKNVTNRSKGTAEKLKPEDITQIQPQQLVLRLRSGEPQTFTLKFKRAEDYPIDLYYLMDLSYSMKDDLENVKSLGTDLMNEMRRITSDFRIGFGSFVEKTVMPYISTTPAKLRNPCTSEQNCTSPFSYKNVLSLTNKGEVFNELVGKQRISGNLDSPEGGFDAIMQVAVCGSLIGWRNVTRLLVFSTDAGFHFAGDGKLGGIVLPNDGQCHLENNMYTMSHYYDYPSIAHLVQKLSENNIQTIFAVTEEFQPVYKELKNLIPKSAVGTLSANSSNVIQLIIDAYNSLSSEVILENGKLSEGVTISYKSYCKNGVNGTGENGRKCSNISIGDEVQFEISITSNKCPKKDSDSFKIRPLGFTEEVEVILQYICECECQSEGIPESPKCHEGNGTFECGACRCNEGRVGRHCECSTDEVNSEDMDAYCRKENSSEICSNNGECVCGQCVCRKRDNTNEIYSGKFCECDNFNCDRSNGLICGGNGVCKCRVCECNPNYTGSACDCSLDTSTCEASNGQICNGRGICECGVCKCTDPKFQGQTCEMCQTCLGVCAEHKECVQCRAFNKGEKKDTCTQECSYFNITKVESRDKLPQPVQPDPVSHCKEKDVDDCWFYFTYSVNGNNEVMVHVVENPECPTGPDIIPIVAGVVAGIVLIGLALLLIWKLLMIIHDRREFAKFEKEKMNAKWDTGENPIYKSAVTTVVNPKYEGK

| IC50 [1, 3] [µM] | IC50 [2, 4] [µM] | Structure (SMILES) | other results |
| --- | --- | --- | --- |
| 0.628 | 0.683 | O=C(Nc1ccc(C[C@H](NC(=O)[C@@H]2C3CCC(CC3)N2S(=O)(=O)c2ccccc2)C(=O)O)cc1)C1CC1 [Cpd 67, 4-[(cyclopropylcarbonyl)amino]-N-[[(3S)-2-(phenylsulfonyl)-2-azabicyclo[2.2.2]oct-3-yl]carbonyl]-L-phenylalanine] |  |
| 0.237 | 1.5 | O=C(Nc1ccc(C[C@H](NC(=O)C2C3CCC(CC3)N2S(=O)(=O)c2ccccc2)C(=O)O)cc1)C1CCNCC1 (stereo partly drawn) [Cpd 59, 4-[(4-piperidinylcarbonyl)amino]-N-[[2-(phenylsulfonyl)-2-azabicyclo[2.2.2]oct-3-yl]carbonyl]-L-phenylalanine] |  |
| 0.179 | 1.49 | Cc1ccc(S(=O)(=O)N2C3CCC(CC3)C2C(=O)N[C@@H](Cc2ccc(NC(=O)c3c(F)cccc3F)cc2)C(=O)O)cc1 (stereo partly drawn) [Cpd 11, 4-[(2,6-difluorobenzoyl)amino]-N-[[2-[(4-methylphenyl)sulfonyl]-2-azabicyclo[2.2.2]oct-3-yl]carbonyl]-L-phenylalanine] |  |
| 0.222 |  | O=C(Nc1ccc(C[C@H](NC(=O)[C@H]2C3CCC(CC3)N2S(=O)(=O)c2ccccc2)C(=O)O)cc1)c1c(Cl)cccc1Cl [Cpd 6b, 4-[(2,6-dichlorobenzoyl)amino]-N-[[(3R)-2-(phenylsulfonyl)-2-azabicyclo[2.2.2]oct-3-yl]carbonyl]-L-phenylalanine] | IC50 [1, 6]: 0.222 µM; IC50 [2, 7]: 0.421 µM |
| 0.24 |  | O=C(Nc1ccc(C[C@H](NC(=O)[C@H]2C3CCC(C3)N2S(=O)(=O)c2ccccc2)C(=O)O)cc1)c1c(Cl)cccc1Cl (stereo partly drawn) [Cpd 16b, 4-[(2,6-dichlorobenzoyl)amino]-N-[[(3R)-2-(phenylsulfonyl)-2-azabicyclo[2.2.1]hept-3-yl]carbonyl]-L-phenylalanine] | IC50 [1, 6]: 0.24 µM; IC50 [2, 7]: 0.393 µM |
| 0.104 | 1.08 | Cc1ccc(S(=O)(=O)N2C3CCC(CC3)C2C(=O)N[C@@H](Cc2ccc(NC(=O)c3ccccc3C(F)(F)F)cc2)C(=O)O)cc1 (stereo partly drawn) [Cpd 12, 4-[[2-(trifluoromethyl)benzoyl]amino]-N-[[2-[(4-methylphenyl)sulfonyl]-2-azabicyclo[2.2.2]oct-3-yl]carbonyl]-L-phenylalanine] |  |
| 0.16 | 0.913 | Cc1ccc(S(=O)(=O)N2C3CCC(CC3)C2C(=O)N[C@@H](Cc2ccc(NC(=O)c3ccccc3Br)cc2)C(=O)O)cc1 (stereo partly drawn) [Cpd 14, 4-[(2-bromobenzoyl)amino]-N-[[2-[(4-methylphenyl)sulfonyl]-2-azabicyclo[2.2.2]oct-3-yl]carbonyl]-L-phenylalanine] |  |

Further lines, the molecule ahead of its results:

| Structure (SMILES) | IC50 [1, 3] [µM] | IC50 [2, 4] [µM] | other results |
| --- | --- | --- | --- |
| CN(C)C(=O)Oc1ccc(C[C@H](NC(=O)[C@@H]2C3CCC(CC3)N2S(=O)(=O)c2ccccc2)C(=O)O)cc1 [Cpd 52a, O-[(dimethylamino)carbonyl]-N-[[(3S)-2-(phenylsulfonyl)-2-azabicyclo[2.2.2]oct-3-yl]carbonyl]-L-tyrosine] |  |  | IC50 ([1]; Antagonist IC50 Activity α4β1, Table I, racemic mixtures and resolved (S,S) and (R,S) diastereomers): 0.045 µM; IC50 [1, 5]: 0.04 µM; IC50 [2]: 0.436 µM; IC50 ([2]; read-out: Inhibition of Binding of K562 Cells to Immobilized VCAM-1 IC50, Table IV): 0.436 µM |
| COc1cccc(OC)c1-c1ccc(C[C@H](NC(=O)C2C3CCC(CC3)N2S(=O)(=O)c2ccc(C)cc2)C(=O)O)cc1 (mixture of isomers) [Cpd 18, 4-(2,6-dimethoxyphenyl)-N-[[2-[(4-methylphenyl)sulfonyl]-2-azabicyclo[2.2.2]oct-3-yl]carbonyl]-L-phenylalanine] | 0.124 |  | IC50 [1, 6]: 0.124 µM; IC50 [2, 7]: 0.21 µM |
| Cc1ccc(S(=O)(=O)N2C3CCC(CC3)C2C(=O)N[C@@H](Cc2cccc(NC(=O)c3c(Cl)cccc3Cl)c2)C(=O)O)cc1 (stereo partly shown) [Cpd 37, 3-[(2,6-dichlorobenzoyl)amino]-N-[[2-[(4-methylphenyl)sulfonyl]-2-azabicyclo[2.2.2]oct-3-yl]carbonyl]phenylalanine] |  |  | IC50 [1, 8]: > 5 µM; IC50 [2, 9]: > 10 µM |
| O=C(Nc1ccc(C[C@H](NC(=O)C2C3CCC(CC3)N2S(=O)(=O)c2ccccc2)C(=O)O)cc1)c1c(Cl)cccc1Cl (mixture of isomers) [Cpd 6, 4-[(2,6-dichlorobenzoyl)amino]-N-[[2-(phenylsulfonyl)-2-azabicyclo[2.2.2]oct-3-yl]carbonyl]-L-phenylalanine] | 0.025 |  | IC50 [1, 6]: 0.02 µM; IC50 [2, 7]: 0.283 µM |
| Cc1ccc(S(=O)(=O)N2C3CCC(CC3)C2C(=O)N[C@@H](Cc2ccc(NC(=O)c3ccccc3Cl)cc2)C(=O)O)cc1 (stereo partly drawn) [Cpd 10, 4-[(2-chlorobenzoyl)amino]-N-[[2-[(4-methylphenyl)sulfonyl]-2-azabicyclo[2.2.2]oct-3-yl]carbonyl]-L-phenylalanine] | 0.145 | 4.41 |  |
| CN(C)C(=O)Oc1ccc(C[C@H](NC(=O)C2C3CCC(CC3)N2S(=O)(=O)c2cccs2)C(=O)O)cc1 (stereo partly drawn) [Cpd 63, O-[(dimethylamino)carbonyl]-N-[[2-(2-thienylsulfonyl)-2-azabicyclo[2.2.2]oct-3-yl]carbonyl]-L-tyrosine] |  |  | IC50 [1, 5]: 0.112 µM; IC50 [2]: 0.286 µM |
| O=C(O)[C@H](Cc1ccc(NC(=O)[C@@H]2C3CCC(CC3)N2S(=O)(=O)c2ccccc2)cc1)NC(=O)[C@@H]1C2CCC(CC2)N1S(=O)(=O)c1ccccc1 [Cpd 70, 4-[[[(3S)-2-(phenylsulfonyl)-2-azabicyclo[2.2.2]oct-3-yl]carbonyl]amino]-N-[[(3S)-2-(phenylsulfonyl)-2-azabicyclo[2.2.2]oct-3-yl]carbonyl]-L-phenylalanine] | 0.37 | 2.03 |  |
| O=C(Nc1ccc(C[C@H](NC(=O)C2C3CCC(CC3)N2S(=O)(=O)c2ccccc2)C(=O)O)cc1)Nc1c(F)cccc1F (stereo partly drawn) [Cpd 34, 4-[[[(2,6-difluorophenyl)amino]carbonyl]amino]-N-[[2-(phenylsulfonyl)-2-azabicyclo[2.2.2]oct-3-yl]carbonyl]-L-phenylalanine] |  |  | IC50 [1, 8]: > 5 µM; IC50 [2, 9]: > 10 µM |
| O=C(Nc1ccc(C[C@H](NC(=O)C2C3CCC(CC3)N2S(=O)(=O)c2ccccc2)C(=O)O)cc1)c1c(F)cc(F)cc1F (stereo partly drawn) [Cpd 43, 4-[(2,4,6-trifluorobenzoyl)amino]-N-[[2-(phenylsulfonyl)-2-azabicyclo[2.2.2]oct-3-yl]carbonyl]-L-phenylalanine] | 0.103 | 0.442 |  |
| Cc1ccc(S(=O)(=O)N2C3CCC(CC3)C2C(=O)N[C@@H](Cc2ccc(OCc3ccccc3)cc2)C(=O)O)cc1 (stereo partly drawn) [Cpd 30, 4-(phenylmethoxy)-N-[[2-[(4-methylphenyl)sulfonyl]-2-azabicyclo[2.2.2]oct-3-yl]carbonyl]-L-phenylalanine] |  |  | IC50 [1, 8]: > 5 µM; IC50 [2, 9]: > 10 µM |
